Assay results taken from PubChem BioAssay (NCI).
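Growth conditions: 96-well plates. Treatment: test compound, 48 hours, 5 concentrations. Analysis: linear interpolation between bracketing concentrations; unreached endpoints set to highest concentration. GI50 = concentration required for 50% inhibition of growth. TGI denotes the concentration required for complete inhibition of growth.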

How the values were obtained:
Assay in all cases: NCI tumour cell line growth inhibition, 48 h
A498 renal = system: A498 renal
NCI-H23 lung = system: NCI-H23 lung
SK-OV-3 ovarian = system: SK-OV-3 ovarian
SW-620 colon = system: SW-620 colon
HT29 colon = system: HT29 colon
COLO 205 colon = system: COLO 205 colon
RPMI-8226 leukemia = system: RPMI-8226 leukemia
NCI/ADR-RES ovarian = system: NCI/ADR-RES ovarian
MOLT-4 leukemia = system: MOLT-4 leukemia
OVCAR-5 ovarian = system: OVCAR-5 ovarian

Row | SMILES | TGI (A498 renal) [µM] | TGI (NCI-H23 lung) [µM] | TGI (SK-OV-3 ovarian) [µM] | TGI (SW-620 colon) [µM] | TGI (HT29 colon) [µM] | TGI (COLO 205 colon) [µM] | TGI (RPMI-8226 leukemia) [µM] | TGI (NCI/ADR-RES ovarian) [µM] | TGI (MOLT-4 leukemia) [µM] | TGI (OVCAR-5 ovarian) [µM] | GI50 (A498 renal) [nM] | GI50 (NCI-H23 lung) [nM] | GI50 (SK-OV-3 ovarian) [nM] | GI50 (SW-620 colon) [nM] | GI50 (HT29 colon) [nM] | GI50 (COLO 205 colon) [nM] | GI50 (RPMI-8226 leukemia) [nM] | GI50 (NCI/ADR-RES ovarian) [nM] | GI50 (MOLT-4 leukemia) [nM] | GI50 (OVCAR-5 ovarian) [nM]
1 | C=CCSc1nnc2cc(CN3CCCC3)c(-c3ccc(Cl)cc3)nn12 | 35.9 | 59.4 | 55.5 | 93 | 32.5 | 34.5 | > 100 | 56.3 | > 100 | 41.5 | – | – | – | – | – | – | – | – | – | –
2 | CC1=NN(c2cccc(Cl)c2)C2(C1=C/C=C/c1ccccc1)C(Cl)C(=O)N2c1nc2ccccc2s1 (stereo not given) | > 66 | > 80.3 | > 95.1 | > 96.1 | > 100 | > 100 | 23.5 | > 100 | 12.1 | > 71.2 | – | – | – | – | – | – | – | – | – | –
3 | CCCCCCOc1ccc(C(=O)NOC)cc1 | > 100 | > 100 | > 100 | > 100 | > 100 | > 100 | > 100 | > 100 | > 100 | > 100 | – | – | – | – | – | – | – | – | – | –
4 | Cc1c(S(=O)(=O)c2ccccc2)c(N)n(CCN(C)C)c1C | > 100 | > 100 | > 100 | > 100 | > 100 | > 100 | > 100 | > 100 | > 100 | > 100 | – | – | – | – | – | – | – | – | – | –
5 | NC1=NCC(CN2CCOCC2)O1 (stereo not given) | > 100 | > 100 | > 100 | > 100 | > 100 | > 100 | > 100 | > 100 | > 100 | > 100 | – | – | – | – | – | – | – | – | – | –
6 | COc1ccc2c(c1)/C(=C\c1c(Cl)nc3sc(C)cn13)C(=O)N2 | 16.6 | 18.9 | 14.6 | 11.7 | 12.7 | 9.45 | 13.8 | 17.7 | 8.41 | 25.4 | – | – | – | – | – | – | – | – | – | –
7 | N=C(N)SCc1ccc2c(c1)Sc1ccccc1O2 | 52.3 | 21.5 | 27 | 34 | 8.54 | 17.8 | > 36.8 | 34.6 | > 93.3 | 25.3 | – | – | – | – | – | – | – | – | – | –
8 | O=C1NCCN1/N=C/c1c(Cl)n(-c2ccccc2)c2ccccc12 | 45.8 | 44.8 | > 100 | 53.4 | 35.3 | 40.5 | 52.8 | 49.6 | > 100 | > 100 | – | – | – | – | – | – | – | – | – | –
9 | CN(C)c1ccc(C(=N/N=C2\C(=O)Nc3ccccc32)c2ccc(N(C)C)cc2)cc1 | 16.8 | 31.1 | 11.9 | > 100 | 4.45 | 3.34 | 3.46 | 3.59 | 52.7 | > 54 | – | – | – | – | – | – | – | – | – | –
10 | CSC(=S)N(C)C | > 100 | > 100 | > 100 | > 100 | > 100 | > 100 | > 100 | > 100 | > 100 | > 100 | – | – | – | – | – | – | – | – | – | –
11 | CN1CSC(=S)N(c2c3ccccc3nc3ccc(Br)cc23)C1 | 27 | 23.5 | 31.1 | 23.8 | 23.1 | 20 | 31.4 | 30.9 | 5.87 | 31.6 | – | – | – | – | – | – | – | – | – | –
12 | O=C1c2ccccc2-c2c1c(-c1ccc(F)cc1)nc1ccc3ccccc3c21 | > 100 | > 100 | > 100 | > 100 | > 100 | > 100 | > 100 | > 100 | > 100 | > 100 | – | – | – | – | – | – | – | – | – | –
13 | CCOC(=O)c1ccc(NCC#CCN2CCOCC2)cc1 | > 100 | > 100 | > 100 | > 100 | > 100 | > 100 | > 100 | > 100 | > 100 | > 100 | – | – | – | – | – | – | – | – | – | –
14 | COc1cccc2c1OC1(C=C2)Oc2ccccc2C(=O)N1C (stereo not given) | 57.4 | > 100 | 74.3 | > 100 | > 100 | > 100 | > 100 | 26.9 | 81.4 | > 100 | – | – | – | – | – | – | – | – | – | –
15 | Cc1ccc(-c2[nH]c(=O)n(C3OC(CO)C(O)C(O)C3O)c(=O)c2C#N)cc1 (stereo not given) | > 100 | > 100 | > 100 | > 100 | > 100 | > 100 | > 100 | > 100 | > 100 | > 100 | – | – | – | – | – | – | – | – | – | –
16 | CO[C@H]1/C=C(/C)CCC[C@H](C)[C@H](O)[C@@H](C)C(=O)C(C)(C)[C@@H](O)CC(=O)O[C@@H]1/C(C)=C/c1csc(C)n1 | > 100 | > 100 | > 77.2 | > 100 | 0.525 | 0.0755 | > 100 | 0.128 | > 100 | > 100 | 23.4 | 34.9 | 27.2 | < 14.8 | < 10 | 15.9 | 70.5 | 25.2 | 35.9 | 43.6
17 | CCCCC(C(=O)NCCNC(=O)CCC(=O)N(C)O)C(=O)NCCNC(=O)CCC(=O)N(C)O | > 100 | > 100 | > 100 | > 100 | > 100 | > 100 | > 100 | > 100 | > 100 | > 100 | – | – | – | – | – | – | – | – | – | –
18 | CC1OC(OC2C(OC(=O)[C@]34CCC(C)(C)C[C@H]3C3=CC[C@@H]5[C@@]6(C)CC[C@H](OC7OC(C(=O)O)C(O)C(O)C7O)C(C)(C)[C@@H]6CC[C@@]5(C)[C@]3(C)C[C@H]4O)OCC(O)C2O)C(O)C(OC2OCC(O)(CO)C2O)C1OC1OCC(O)C(O)C1O (stereo not given in full) | 3.47 | 7.18 | 29.3 | 23.2 | 12.1 | 3.36 | 26 | 27.9 | 38.8 | 22.9 | – | – | – | – | – | – | – | – | – | –
19 | CC(=O)Nc1nc(C#N)[nH]c1C#N | > 100 | > 100 | > 100 | > 100 | > 100 | > 100 | > 100 | > 100 | > 100 | > 100 | – | – | – | – | – | – | – | – | – | –
